{"source": "patent US20230414599A1", "about": "“NICOTINAMIDE, NICOTINAMIDE PRECURSORS AND NICOTINAMIDE METABOLITES AND COMPOSITIONS THEREOF FOR REDUCING THE TIME TO RESOLUTION OF SYMPTOMS IN PATIENTS WITH COVID-19 AND OTHER VIRAL INFECTIONS” (CONARIS RESEARCH INSTITUTE AG, priority 2020, published 2023)", "system": "COVID-19", "experiment": "Pilot phase of the COVit-1 dietary intervention trial (n = 16 outpatients)", "type": "in vivo", "key": {"[1]": {"conditions": "1,000 mg/day immediate-release, n = 8, up to 21 days after positive SARS-CoV-2 test"}, "[2]": {"conditions": "1,000 mg/day, n = 8, up to 21 days after positive test"}, "[3]": {"conditions": "only patients with symptoms persisting at week 4 queried, n = 3"}}, "data": [{"compound": "NC(=O)c1cccnc1", "note": "[Nicotinamide, nicotinamide]", "values": [{"measurement": "Proportion of subjects still suffering from at least one COVID-19 symptom at or before day 21 after first testing positive", "setting": "1,000 mg nicotinamide per day for 28 days, n = 8", "result": 50, "unit": "%"}, {"measurement": "Patients with anorexia/loss of appetite at week 2", "setting": "[1]", "result": 0}, {"measurement": "Patients with arthralgia at week 2", "setting": "[1]", "result": 0}, {"measurement": "Patients with chest pain at week 2", "setting": "[1]", "result": 0}, {"measurement": "Patients with cough at week 2", "setting": "[1]", "result": 2}, {"measurement": "Patients with diarrhoea at week 2", "setting": "[1]", "result": 1}, {"measurement": "Patients with dyspnoea/shortness of breath at week 2", "setting": "[1]", "result": 2}, {"measurement": "Patients with fatigue at week 2", "setting": "[1]", "result": 2}, {"measurement": "Patients with fever (total) at week 2", "setting": "[1]", "result": 1}, {"measurement": "Patients with fever <38° C. at week 2", "setting": "[1]", "result": 1}, {"measurement": "Patients with fever >38° C. at week 2", "setting": "[1]", "result": 1}, {"measurement": "Patients with headache at week 2", "setting": "[1]", "result": 1}, {"measurement": "Patients with impaired sense of smell at week 2", "setting": "[1]", "result": 1}, {"measurement": "Patients with impaired sense of taste at week 2", "setting": "[1]", "result": 1}, {"measurement": "Patients with myalgia at week 2", "setting": "[1]", "result": 0}, {"measurement": "Patients with reduced physical performance at week 2", "setting": "[1]", "result": 2}, {"measurement": "Patients with rhinorrhoea at week 2", "setting": "[1]", "result": 1}, {"measurement": "Patients with sore throat/pharyngalgia at week 2", "setting": "[1]", "result": 0}, {"measurement": "Patients with sputum production at week 2", "setting": "[1]", "result": 1}, {"measurement": "Patients with vomiting at week 2", "setting": "[1]", "result": 0}, {"measurement": "Patients requiring hospitalisation before week 2", "setting": "1,000 mg/day, n = 8", "result": "no patient"}, {"measurement": "Patients with persisting symptoms at week 4", "setting": "1,000 mg/day, n = 8", "result": 3}, {"measurement": "Symptom-free patients at week 4", "setting": "1,000 mg/day, n = 8", "result": 5}, {"measurement": "Patients with persisting symptoms at week 2", "setting": "[2]", "result": 4}, {"measurement": "Symptom-free patients at week 2", "setting": "[2]", "result": 4}, {"measurement": "Patients with persisting symptoms at week 6", "setting": "[3]", "result": 2}, {"measurement": "Symptom-free patients at week 6", "setting": "[3]", "result": 1}]}]}
